Data: patent US20050153951A1, “Neurotrophic pyrrolidines and piperidines, and related compositions and methods” (priority 1999, published 2005)
“And” between values parts separate entries of the source, which are not always exact repeats. Equal values may be shown once.

Experiments:
[1] = system: Human M17 Neuroblastoma Cells; experiment: Neurite outgrowth assay, M17 neuroblastoma cells; type: cell-based; details: MAP-2 immunofluorescence; active if greater than mean DMSO-treated control on the same plate
Experimental: M17 human neuroblastoma cells are cultured in 1:1 ratio of EMEM and Hams's F12 with 1×NEM and 10% FBS. The culture media contains 1×PSN antibiotic and is exchanged every other day, and the cells are passed in log phase near confluence.
(§1) Cultures are incubated with normal horse serum (1:50; Vector Labs) for about 20 min, rinsed and then incubated with primary antibody, microtubule associated-protein 2 (anti-mouse MAP-2; 1:1000; Chemicon) for about 2 h at about RT. Following primary antibody, cultures are rinsed and incubated with fluorescein anti-mouse IgG (rat absorbed; 1:50; Vector Labs) for about 1 h. After fluorescein incubation, the cultures are rinsed and read in PBS on a fluorescent plate reader (excitation: 485 nm; emission: 530 nm). […] The response to test compound is reported as percent of DMSO-treated control.

[2] = system: Dorsal Root Ganglion (DRG); experiment: Dorsal Root Ganglion (DRG) culture, neurite outgrowth; type: cell-based, rat; set-up: key: +: Positive results for each experiment; −: Negative results for each experiment; details: test compound 50-250 nM; neurite outgrowth examined days 1-5; positive if neurites of ≧1 diameter of the DRG; one symbol per experiment
Experimental: DRG are dissected from newborn or 1-day-old CD rats and placed into PBS on ice. After rinsing twice with sterile plating medium, DRG are transferred to empty wells of a 6-well plate coated with polyornithine/laminin (Becton Dickinson Labware) using #7 curved forceps. Three ml/well of plating medium are then added very gently, so as not to disturb the DRG. Plating medium is Leibovitz's L-15 medium (Gibco), plus 0.6% glucose, 33 mM KCl, 10% FCS, 10 mM Hepes and penicillin/streptomycin/glutamine. After overnight incubation at about 37° C. in 5% CO2, this medium is replaced with 3 mL/well of assay medium [Leibovitz's L-15 medium plus 0.6% glucose, 1% FCS, 1% N-2 supplement (Gibco), 10 μM ara-C, 10 mM Hepes, and penicillin/streptomycin/glutamine] containing either vehicle (DMSO, 1/200,000), positive control (24 ng/mL NGF) or test compound (50-250 nM). All media are prepared fresh daily. DRG are microscopically examined for neurite outgrowth on days 1-5.

[3] = system: Primary Rat Hippocampal Cells; experiment: Neurite outgrowth assay, primary rat hippocampal cells; type: cell-based; details: MAP-2 immunofluorescence; active if greater than mean DMSO-treated control on the same plate
Experimental: Hippocampal cells are dissected from the brains of embryonic day 18 rat pups and dissociated with trypsin (1 mg/mL) and trituration. Cells are seeded at 30,000 cells/well in 96-well plates filled with 100 μL MEM and 10% FBS. At 7 days in culture, cells are fixed with 4% paraformaldehyde and immuno-fluorescence is performed.
as §1

facial nerve = experiment: Rat facial nerve compression model; type: in vivo; details: p.o. about 20 mg/kg twice a day for 15 days; compared to vehicle and internal control; FIG. 1
Experimental: In this model, compressing the facial nerve causes paralysis of the whisker muscle on that side of the face. The untreated facial nerve on the other side functions as an internal control. […] The whisker movement recovery rate on the paralyzed side compared to the vehicle and internal control is shown in this FIGURE.
Long-Evans rats are anesthetized under ketamine (60 mg/kg)/xylazine (6 mg/kg). The facial nerve is exposed and mechanically compressed with forceps near the stylomastoid foramen unilaterally with the opposite, non-lesioned side serving as an internal control. […] Rats received test compound p.o. at about 20 mg/kg twice a day for 15 days after the surgery. Control rats received vehicle only. Three to eight rats are tested in each group. Restoration of whisker movement after the treatment with compounds of the present invention is recorded at different post-operative time points daily, up to two weeks, and is shown in FIG. 1.

[4] = system: PC12 cells and sensory ganglia; details: cultures of PC12 cells and sensory ganglia; Lyons et al. 1994; cited from earlier work

| Compound | M17 Cell Response [1] | Rat Hippocampal Cell Response [3] | other results |
| --- | --- | --- | --- |
| O=C(NCc1cccnc1)c1ncoc1[C@@H]1CCCN1C(=O)OCc1ccccc1 [Compound 1] | 103% of DMSO-treated control |  | DRG [2]: − |
| O=C(NCc1cccnc1)c1ncoc1[C@@H]1CCCN1S(=O)(=O)Cc1ccccc1 [Compound 3] |  |  | DRG [2]: − |
| O=C(OCc1cccnc1)c1ncoc1[C@@H]1CCCN1C(=O)OCc1ccccc1 [Compound 4] | 134% of DMSO-treated control and 111% of DMSO-treated control | 111% of DMSO-treated control and 123% of DMSO-treated control | DRG [2]: + |
| O=C(NCc1cccnc1)c1csc([C@@H]2CCCN2C(=O)OCc2ccccc2)n1 [Compound 11] |  |  | DRG [2]: + |
| O=C(NCc1cccnc1)c1csc([C@@H]2CCCN2S(=O)(=O)Cc2ccccc2)n1 [Compound 13] | 102% of DMSO-treated control |  | DRG [2]: − |
| CCC(C)(C)C(=O)C(=O)N1CCC[C@H]1c1nc(C(=O)NCc2cccnc2)cs1 [Compound 14] | 112% of DMSO-treated control and 108% of DMSO-treated control | 116% of DMSO-treated control |  |
| CCC(C)(C)C(=O)C(=O)N1CCC[C@H]1c1nc(COc2cccnc2)cs1 [Compound 19] | 110% of DMSO-treated control | 109% of DMSO-treated control |  |
| CCC(C)(C)C(=O)C(=O)N1CCC[C@H]1C(=O)NNC(=O)[C@@H]1CCCN1C(=O)C(=O)C(C)(C)CC [Compound 24] | 123% of DMSO-treated control | 119% of DMSO-treated control and 104% of DMSO-treated control and 108% of DMSO-treated control | DRG [2]: + and − |
| CCC(C)(C)C(=O)C(=O)N1CCCC[C@H]1C(=O)NNC(=O)[C@@H]1CCCCN1C(=O)C(=O)C(C)(C)CC [Compound 25] | 111% of DMSO-treated control | 108% of DMSO-treated control |  |
| CCC(C)(C)C(=O)C(=O)N1CC[C@H]1C(=O)NNC(=O)[C@@H]1CCN1C(=O)C(=O)C(C)(C)CC [Compound 26] |  | 133% of DMSO-treated control |  |
| CCC(C)(C)C(=O)C(=O)N1CCCC1c1nnc([C@@H]2CCCN2C(=O)C(=O)C(C)(C)CC)o1 (some centres unmarked) [Compound 30] | 112% of DMSO-treated control and 103% of DMSO-treated control | 161% of DMSO-treated control and 118% of DMSO-treated control and 130% of DMSO-treated control | Restoration of whisker movement on the paralyzed side (facial nerve): restored more rapidly; DRG [2]: +, +, +, +, + |
| CCC(C)(C)C(=O)C(=O)N1CCC[C@H]1c1nc(CCc2cccnc2)no1 [Compound 31] | 111% of DMSO-treated control | 124% of DMSO-treated control | DRG [2]: + and − |
| CCC(C)(C)C(=O)C(=O)N1CCC[C@H]1C(=O)NNC(=O)CCc1cccnc1 [Compound 32] | 103% of DMSO-treated control |  |  |
| CCC(C)(C)C(=O)C(=O)N1CCC[C@H]1c1nnc(CCc2cccnc2)o1 [Compound 33] | 104% of DMSO-treated control | 112% of DMSO-treated control |  |
| CCC(C)(C)C(=O)C(=O)N1CCC[C@H]1C(=O)NNC(=O)CCc1cc(OC)c(OC)c(OC)c1 [Compound 34] | 106% of DMSO-treated control | 113% of DMSO-treated control |  |
| CCC(C)(C)C(=O)C(=O)N1CCC[C@H]1c1nnc(CCc2cc(OC)c(OC)c(OC)c2)o1 [Compound 35] | 106% of DMSO-treated control | 126% of DMSO-treated control |  |
| CCC(C)(C)C(=O)C(=O)N1CCCC[C@H]1C(=O)NNC(=O)CCc1cc(OC)c(OC)c(OC)c1 [Compound 37] | 111% of DMSO-treated control | 130% of DMSO-treated control |  |

| Compound | M17 Cell Response [1] | Rat Hippocampal Cell Response [3] | other results |
| --- | --- | --- | --- |
| CCC(C)(C)C(=O)C(=O)N1CCCC[C@H]1c1nnc(CCc2cccnc2)o1 [Compound 38] | 105% of DMSO-treated control | 129% of DMSO-treated control |  |
| CCC(C)(C)C(=O)C(=O)N1CCCC[C@H]1c1nnc(CCc2cc(OC)c(OC)c(OC)c2)o1 [Compound 39] | 112% of DMSO-treated control |  |  |
| CCC(C)(C)C(=O)C(=O)N1CCCCC1c1nnc([C@@H]2CCCCN2C(=O)C(=O)C(C)(C)CC)o1 (some centres unmarked) [Compound 44] | 118% of DMSO-treated control |  |  |
| O=C(C(=O)N1CCCC1c1nnc([C@@H]2CCCN2C(=O)C(=O)c2cccs2)o1)c1cccs1 (some centres unmarked) [Compound 48] |  | 113% of DMSO-treated control |  |
| CCC(C)(C)C(=O)C(=O)N1CCC[C@H]1C(=O)NNC(=O)[C@@H]1CCCN1C(=O)OCc1ccccc1 [Compound 50] |  | 110% of DMSO-treated control |  |
| COC(=O)C(=O)N1CCCC1c1nnc([C@@H]2CCCN2C(=O)C(=O)OC)o1 (some centres unmarked) [Compound 51] |  | 107% of DMSO-treated control |  |
| CCC(C)(C)C(=O)C(=O)N1CCC1c1nnc([C@@H]2CCN2C(=O)C(=O)C(C)(C)CC)o1 (some centres unmarked) [Compound 52] |  | 110% of DMSO-treated control |  |
| O=S(=O)(Cc1ccccc1)N1CCCC1c1nnc([C@@H]2CCCN2S(=O)(=O)Cc2ccccc2)o1 (some centres unmarked) [Compound 54] |  | 113% of DMSO-treated control |  |
| CCC(C)(C)C(=O)C(=O)N1CCC[C@H]1c1nnc(C2CCCN2)o1 (some centres unmarked) [Compound 55] |  | 116% of DMSO-treated control |  |
| COc1cc(C(=O)C(=O)N2CCCC2c2nnc([C@@H]3CCCN3C(=O)C(=O)c3cc(OC)c(OC)c(OC)c3)o2)cc(OC)c1OC (some centres unmarked) [Compound 56] |  | 118% of DMSO-treated control and 116% of DMSO-treated control |  |
| CCC(C)(C)C(=O)C(=O)N1CSCC1c1nnc([C@@H]2CSCN2C(=O)C(=O)C(C)(C)CC)o1 (some centres unmarked) [Compound 58] |  | 142% of DMSO-treated control |  |
| CCC(C)(C)C(=O)C(=O)N1CCC[C@H]1C(=O)NNC(=O)c1cccnc1 [Compound 59] |  | 116% of DMSO-treated control |  |
| CCC(C)(C)C(=O)C(=O)N1CCC[C@H]1c1nnc(-c2cccnc2)o1 [Compound 60] |  | 114% of DMSO-treated control |  |
| CC(C)(C)C(=O)C(=O)N1CCCC1c1nnc([C@@H]2CCCN2C(=O)C(=O)C(C)(C)C)o1 (some centres unmarked) [Compound 62] |  | 120% of DMSO-treated control |  |
| CCC(C)(C)C(=O)C(=O)N1CCCC1C(=O)NNC(=O)[C@H]1CCCN1C(=O)C(=O)C(C)(C)CC (some centres unmarked) [Compound 63] |  | 110% of DMSO-treated control |  |
| CCC(C)(C)C(=O)C(=O)N1CCC[C@@H]1c1nnc([C@H]2CCCN2C(=O)C(=O)C(C)(C)CC)o1 [Compound 64] |  | 122% of DMSO-treated control |  |
| C=CC[C@@H]1/C=C(\C)C[C@H](C)C[C@H](OC)[C@H]2O[C@@](O)(C(=O)C(=O)N3CCCC[C@H]3C(=O)O[C@H](/C(C)=C/[C@@H]3CC[C@@H](O)[C@H](OC)C3)[C@H](C)[C@@H](O)CC1=O)[C@H](C)C[C@@H]2OC [FK506] |  |  | neurotrophic activity [4]: shows neurotrophic activity |
